The values below come from PubChem BioAssay AID330 (DTP/NCI, 2004).

The assay has as its system P388 leukemia ip, CD2F1 mice, survival T/C. Put plainly: NCI In Vivo Anticancer Drug Screen. Data for tumor model P388 Leukemia (intraperitoneal) in CD2F1 (CDF1) mice. To be noted: endpoint: median survival time, higher = longer survival. An outline of the steps: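 Mice carrying the transplanted tumor received test compound or vehicle. Survival was recorded in each group, and the value is the treated-group measurement divided by that of the vehicle-treated control group.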

The mark [1] stands for this setting: dose: 50.0 mg/kg/injection, schedule: Q01DX009 (ip), vehicle: Klucel (hydroxypropylcellulose) (HPC).
The mark [2] stands for this setting: dose: 100.0 mg/kg/injection, schedule: Q01DX009 (ip), vehicle: Klucel (hydroxypropylcellulose) (HPC).
[3] abbreviates: dose: 15.0 mg/kg/injection, schedule: Q01DX005 (ip), vehicle: saline with Tween-80.
The mark [4] stands for this setting: dose: 30.0 mg/kg/injection, schedule: Q01DX005 (ip), vehicle: saline with Tween-80.
Setting [5] is: dose: 60.0 mg/kg/injection, schedule: Q01DX005 (ip), vehicle: saline with Tween-80.
The mark [6] stands for this setting: dose: 50.0 mg/kg/injection, schedule: Q01DX005 (ip), vehicle: saline with Tween-80.
The mark [7] stands for this setting: dose: 12.5 mg/kg/injection, schedule: Q01DX009 (ip), vehicle: saline with Tween-80.
Where [8] appears, read: dose: 25.0 mg/kg/injection, schedule: Q01DX009 (ip), vehicle: saline with Tween-80.
Where [9] appears, read: dose: 50.0 mg/kg/injection, schedule: Q01DX009 (ip), vehicle: saline with Tween-80.
Setting [10] is: dose: 100.0 mg/kg/injection, schedule: Q01DX009 (ip), vehicle: saline with Tween-80.
Setting [11] is: dose: 120.0 mg/kg/injection, schedule: Q01DX005 (ip), vehicle: saline with Tween-80.
Setting [12] is: dose: 240.0 mg/kg/injection, schedule: Q01DX005 (ip), vehicle: saline with Tween-80.
Setting [13] is: dose: 12.5 mg/kg/injection, schedule: Q01DX009 (ip), vehicle: saline.
Where [14] appears, read: dose: 25.0 mg/kg/injection, schedule: Q01DX009 (ip), vehicle: saline.
Setting [15] is: dose: 50.0 mg/kg/injection, schedule: Q01DX009 (ip), vehicle: saline.
The mark [16] stands for this setting: dose: 100.0 mg/kg/injection, schedule: Q01DX009 (ip), vehicle: saline.
The mark [17] stands for this setting: dose: 50.0 mg/kg/injection, schedule: Q01DX005 (ip), vehicle: Klucel (hydroxypropylcellulose) (HPC).
The mark [18] stands for this setting: dose: 100.0 mg/kg/injection, schedule: Q01DX005 (ip), vehicle: Klucel (hydroxypropylcellulose) (HPC).
[19] abbreviates: dose: 200.0 mg/kg/injection, schedule: Q01DX005 (ip), vehicle: Klucel (hydroxypropylcellulose) (HPC).
Where [20] appears, read: dose: 200.0 mg/kg/injection, schedule: Q01DX009 (ip), vehicle: saline with Tween-80.
Setting [21] is: dose: 100.0 mg/kg/injection, schedule: Q01DX005 (ip), vehicle: saline with Tween-80.
Setting [22] is: dose: 200.0 mg/kg/injection, schedule: Q01DX005 (ip), vehicle: saline with Tween-80.

Structures are written as SMILES. Values joined by “and” are separate entries in the source; they are usually repeats but may differ in a detail not shown here. Equal values may be shown once. Toxic doses and inconclusive results are not listed.

Consider `O=C(O)CC1Sc2nc3c(n2C1(O)c1ccccc1)-c1ccccc1CC3` (stereo not drawn), for which the T/C is 111 % of control (dose: 25.0 mg/kg/injection, schedule: Q01DX009 (ip), vehicle: Klucel (hydroxypropylcellulose) (HPC)); 98 % of control under setting [1]; 100 % of control under setting [2].
With `N#CC(O)Cc1ccccc1` (stereo not drawn), the T/C (dose: 2.5 mg/kg/injection, schedule: Q04DX003 (ip), vehicle: other) was 110 % of control; the T/C (dose: 5.0 mg/kg/injection, schedule: Q04DX003 (ip), vehicle: other) is 105 % of control; the T/C (dose: 10.0 mg/kg/injection, schedule: Q04DX003 (ip), vehicle: other) is 105 % of control.
As to `CN1C(=O)n2c(nc3ccccc32)C(N=[N+]=[N-])(N=[N+]=[N-])C1=O` (stereo not drawn), the T/C under setting [3] is 108 % of control; the T/C under setting [4] is 101 % of control; the T/C under setting [5] was 101 % of control and 110 % of control.
Regarding `CCC(=O)OCC1OC(OC2c3cc4c(cc3C(c3cc(OC)c(OC)c(OC)c3)C3C(=O)OCC23)OCO4)C(OC(=O)CC)C(OC(=O)CC)C1OC(=O)CC` (stereo not drawn), the T/C runs as follows: (dose: 12.5 mg/kg/injection, schedule: Q01DX005 (ip), vehicle: saline with Tween-80) 98 % of control; (dose: 25.0 mg/kg/injection, schedule: Q01DX005 (ip), vehicle: saline with Tween-80) 91 % of control; under setting [6], 88 % of control and 89 % of control.
As to `CN(C)CCOc1ccc2c(c1)C(=O)/C(=C\c1ncc([N+](=O)[O-])n1C)C2`, the T/C was 113 % of control under setting [7]; 123 % of control and 94 % of control under setting [8]; 121 % of control under setting [9]; 123 % of control under setting [10].
As for `Nc1nccc(CC(O)(c2ccccc2)c2ccccc2)n1`, the T/C reads like this: under setting [3], 102 % of control; under setting [4], 102 % of control; under setting [5], 99 % of control and 100 % of control; under setting [11], 95 % of control; under setting [12], 87 % of control.
In the case of `CSCCC(N)C(=O)OCN1C(=O)C2C3C=CC(C2C1=O)C1C2C(=O)N(COC(=O)C(N)CCSC)C(=O)C2C31` (stereo not drawn), the T/C by setting is: under setting [13], 117 % of control; under setting [14], 122 % of control and 93 % of control; under setting [15], 109 % of control; under setting [16], 171 % of control and 200 % of control.
`S=c1s/c(=C\c2ccccc2)c2nc3ccccc3n12`: the T/C under setting [15] was 90 % of control and the T/C under setting [16] is 88 % of control.
Turning to `CC(C)CNC(=O)NCCCCCCNC(=O)NCC(C)C`, the T/C is 94 % of control under setting [5], 93 % of control under setting [11] and 93 % of control under setting [12].
In the case of `COc1cccc2c1C1c3ccccc3Sc3cccc(c31)O2` (stereo not drawn), the T/C was 98 % of control (dose: 25.0 mg/kg/injection, schedule: Q01DX005 (ip), vehicle: Klucel (hydroxypropylcellulose) (HPC)); 100 % of control under setting [17]; 100 % of control under setting [18]; 99 % of control under setting [19].
On to `Cc1ccc(O)c(C(c2cc(C)ccc2O)c2ccccc2Cl)c1`, for which the T/C by setting is: under setting [9], 108 % of control; under setting [10], 108 % of control; under setting [20], 103 % of control.
Take `COC(=O)C1(c2ccccc2)N=C1N(C)C` (stereo not drawn): the T/C reads like this: (dose: 100.0 mg/kg/injection, schedule: Q04DX002 (ip), vehicle: saline with Tween-80) 94 % of control; (dose: 200.0 mg/kg/injection, schedule: Q04DX002 (ip), vehicle: saline with Tween-80) 94 % of control; (dose: 400.0 mg/kg/injection, schedule: Q04DX002 (ip), vehicle: saline with Tween-80) 102 % of control.
Regarding `C/C(=N\NC(=S)N1CCN(c2ccccn2)CC1)c1cccc2cccnc12`, the T/C was 103 % of control under setting [6], 106 % of control under setting [21] and 110 % of control under setting [22].
Take `CCSc1nc(N)c(C(=O)N2CCCCC2)s1`: the T/C is 99 % of control under setting [1]; 98 % of control under setting [2]; 105 % of control (dose: 200.0 mg/kg/injection, schedule: Q01DX009 (ip), vehicle: Klucel (hydroxypropylcellulose) (HPC)).
As for `C1=C[N-]c2c3c(ccc2=C1)=CC=C[N-]3.C1=C[N-]c2c3c(ccc2=C1)=CC=C[N-]3.[Cl][Ru][Cl]`, the T/C reads like this: (dose: 1.56 mg/kg/injection, schedule: Q01DX005 (ip), vehicle: saline with Tween-80) 88 % of control; (dose: 3.13 mg/kg/injection, schedule: Q01DX005 (ip), vehicle: saline with Tween-80) 111 % of control; (dose: 6.25 mg/kg/injection, schedule: Q01DX005 (ip), vehicle: saline with Tween-80) 104 % of control.
Consider `CCC1CN1P(=O)(Oc1ccc2ccccc2c1)N1CC1CC` (stereo not drawn), for which the T/C (dose: 44.0 mg/kg/injection, schedule: Q04DX003 (ip), vehicle: saline with Tween-80) is 104 % of control; the T/C under setting [9] was 173 % of control; the T/C (dose: 66.0 mg/kg/injection, schedule: Q04DX003 (ip), vehicle: saline with Tween-80) was 109 % of control; the T/C under setting [10] was 155 % of control and 177 % of control; the T/C (dose: 150.0 mg/kg/injection, schedule: Q01DX009 (ip), vehicle: saline with Tween-80) is 100 % of control; the T/C (dose: 150.0 mg/kg/injection, schedule: Q04DX003 (ip), vehicle: saline with Tween-80) was 240 % of control. Also, under setting [20], the T/C was 170 % of control.
As for `Cc1ncc(CO)n1C`, the T/C is, setting by setting: under setting [9], 104 % of control; under setting [10], 101 % of control; under setting [20], 101 % of control; (dose: 400.0 mg/kg/injection, schedule: Q01DX009 (ip), vehicle: saline with Tween-80) 113 % of control.
In the case of `C=C(Cl)CSC(=S)N(CC)CC`, the T/C (dose: 37.5 mg/kg/injection, schedule: Q01DX009 (ip), vehicle: saline sonified) is 100 % of control; the T/C (dose: 75.0 mg/kg/injection, schedule: Q01DX009 (ip), vehicle: saline sonified) was 104 % of control; the T/C (dose: 150.0 mg/kg/injection, schedule: Q01DX009 (ip), vehicle: saline sonified) was 109 % of control.
Consider `COc1ccc2nc(C)c(C)nc2c1Cl`, for which the T/C runs as follows: under setting [17], 98 % of control; under setting [18], 100 % of control; under setting [19], 95 % of control.
Turning to `O=C1Nc2ccccc2C1NC(=S)Nc1ccccc1` (stereo not drawn), the T/C runs as follows: under setting [5], 96 % of control; under setting [11], 94 % of control.
For the molecule `C1CN2CCOC2O1`, the T/C reads like this: (dose: 60.0 mg/kg/injection, schedule: Q01DX005 (ip), vehicle: saline) 100 % of control; (dose: 120.0 mg/kg/injection, schedule: Q01DX005 (ip), vehicle: saline) 101 % of control; (dose: 240.0 mg/kg/injection, schedule: Q01DX005 (ip), vehicle: saline) 99 % of control.
With `NCCCNCCSP(=O)(O)O`, the T/C was 106 % of control under setting [7]; 108 % of control under setting [13]; 104 % of control under setting [8]; 100 % of control and 104 % of control under setting [14]; 95 % of control under setting [9]; 103 % of control and 109 % of control under setting [15]. For the same molecule, the T/C by setting is: under setting [16], 104 % of control and 87 % of control; under setting [20], 106 % of control; (dose: 200.0 mg/kg/injection, schedule: Q01DX009 (ip), vehicle: saline) 112 % of control.
In the case of `CC1(C)O[C@@H]2C[C@H]3[C@@H]4CCC5=CC(=O)C=C[C@]5(C)[C@@]4(F)[C@@H](O)C[C@]3(C)[C@]2(C(=O)CO)O1`, the T/C runs as follows: under setting [7], 109 % of control; under setting [8], 109 % of control.
Turning to `O=C(/C=C/C=C/c1ccccc1)c1ccco1`, the T/C under setting [9] was 94 % of control, the T/C under setting [10] was 94 % of control and the T/C under setting [20] is 99 % of control.
For `O=C(NCc1ccccc1)c1ccccc1NS(=O)(=O)c1ccc(Cl)c(Cl)c1`, the T/C was 96 % of control under setting [6], 87 % of control under setting [21] and 93 % of control under setting [22].
